{"source": "patent US20160238590A1", "about": "“COMPOSITIONS AND METHODS RELATED TO OAT SENSITIVITY” (IMMUSANT, INC., priority 2013, published 2016)", "format_in_all_cases": "cell-based, human", "key": {"Patient 2 TCC-01": {"tested_on": "Patient 2 TCC-01", "assay": "IFN-γ ELISpot with T cell clone", "conditions": "TCC Patient 2 TCC-01 (Table 5); mean no antigen 1.1", "method": "(§1) Peripheral blood mononuclear cells (PBMC) were isolated from heparinized whole blood using Ficoll-Paque™ Plus density-gradient centrifugation (GE Healthcare). IFN-γ ELISpot (Mabtech) was set up as previously described^8.\n(§2) Isolation of TCC from CD patients was carried out as previously described^8. Briefly, CFSE-labeled PBMC were incubated with antigen for 7 days in IMDM supplemented with 5% heat-inactivated pooled human serum (PHS), 2 mM GlutaMAX™, 100 μM MEM non-essential amino acids (both from Gibco, Invitrogen), and 50 μM 2-mercaptoethanol (Sigma). Proliferated cells were single-cell sorted into 96-well plates containing IL-2, IL-4, anti-CD3 mAb, irradiated feeder cells (allogeneic PBMC and JY-EBV). TCC were expanded and maintained in IL-2 and IL-4 and tested for specificity by ELISpot with irradiated HLA-matched PBMC as antigen-presenting cells. Expanded clones were tested for HLA-DQ restriction, TCR Vbeta usage, and with lysine scans to work out minimal epitopes. See Table 1 below for TCC and epitope information."}, "Patient 14 TCC-01": {"tested_on": "Patient 14 TCC-01", "assay": "IFN-γ ELISpot with T cell clone", "conditions": "TCC Patient 14 TCC-01 (Table 5); mean no antigen 11.3, high background, SFU >25 considered as positive responses", "method": "as §1, §2"}, "Patient 6 TCC-01": {"tested_on": "Patient 6 TCC-01", "assay": "IFN-γ ELISpot with T cell clone", "conditions": "TCC Patient 6 TCC-01 (Table 5); mean no antigen 2", "method": "as §1, §2"}, "PBMC [1]": {"tested_on": "PBMC", "assay": "IFN-γ ELISpot on PBMC of CD patients after 3-day barley challenge", "conditions": "after barley challenge", "excerpt": "(§3) Australian Caucasian HLA-DQ2.5^+ and/or HLA-DQ8^+ CD subjects were recruited by advertisement in the Coeliac Society of Victoria newsletter and all had biopsy-proven CD conforming to ESPGHAN criteria. Patients had been on strict gluten free diet for at least 4 weeks prior to commencing grain challenge. Patients underwent 3-day grain challenge with oats, barley, or combined wheat, barley, and rye muffins, and 6 days after commencement, blood was collected. Day 0 responses were not observed in the selection of patients tested, as described previously^8.\n(§4) Oats challenge consisted of 100 g dry weight daily of one of three commercial brands of oats: one not tested for wheat contamination (Uncle Toby's; Oats #1), and two shown by R5 ELISA to contain less than 20 ppm wheat gluten (Tilquhilie Pudding; Oats #2 and Freedom Food; Oats #3). Barley challenge consisted of pearl barley (Ward McKenzie) cooked into a risotto (150 g dry weight daily) and the wheat challenge consisted of four 50 g slices of wheat bread daily (Baker's Delight white loaf cut to toasting thickness). The combined wheat, barley, and rye challenge consisted of muffins baked with wheat flour (White Wings), barley flour (Four Leaf Milling), and rye flour (Four Leaf Milling; 22-25 g dry weight each daily). A symptom diary based on a […] Likert scale was completed by participants daily from baseline until day 6.\n(§5) Two avenin peptide libraries were utilized for epitope screening. These were designed using avenin sequences from GenBank and a customized algorithm, as previously described^9. The initial library consisted of 199 screening-grade 20 mers including all possible 12 mers (Mimotopes). This library was screened with and without tTG pre-treatment. The second library consisted of additional avenin sequences that were synthesized with glutamate substitution at sites predicted to be deamidated by published algorithms^10, 11 removing the requirement for tTG treatment. This library contained 369 screening-grade 20 mers, including all possible 12 mers (Pepscan). The second round avenin library contained wild-type and deamidated versions of the most immunogenic sequences (25 high quality 16 mers from Mimotopes). High quality peptides containing previously described immunogenic sequences from wheat, barley, and rye were used to test for cross-reactivity^8 (Pepscan). High quality hordein and avenin peptides for TCC testing and biochemical studies were ordered from Pepscan, Mimotopes, or GL Biochem.\nas §1"}, "PBMC [2]": {"tested_on": "PBMC", "assay": "IFN-γ ELISpot on PBMC of CD patients on day 6 after 3-day oats challenge", "excerpt": "as §3, §4, §5, §1"}, "[3]": {"conditions": "patient P2, peptide 100 μg/ml, after 3-day oats challenge"}}}
{"sequence": "FPEQPVPEQPQPYP [barley peptide, 1103203B (30-43) [Q32 to E, Q37 to E]]", "values": [{"measurement": "IFN-γ ELISpot response (raw SFU)", "setting": "Patient 2 TCC-01", "result": 2, "unit": "SFU"}, {"measurement": "IFN-γ ELISpot response (raw SFU)", "setting": "Patient 14 TCC-01", "result": 78, "unit": "SFU"}, {"measurement": "IFN-γ ELISpot response (raw SFU)", "setting": "Patient 6 TCC-01", "result": 99, "unit": "SFU"}]}
{"sequence": "PSEQYQPYPEQEQPILQQEE [avenin library peptide]", "values": [{"measurement": "IFN-γ ELISpot response (raw SFU)", "setting": "PBMC [1]; Patient 1, peptide 50 μg/ml", "result": 27, "unit": "SFU"}, {"measurement": "significant SFU as a percentage of maximal peptide SFU", "setting": "PBMC [1]; Patient 1, peptide 50 μg/ml", "result": "(^: 5-10%)"}, {"measurement": "IFN-γ ELISpot response (raw SFU)", "setting": "PBMC [1]; Patient 2, peptide 50 μg/ml", "result": 159, "unit": "SFU"}, {"measurement": "significant SFU as a percentage of maximal peptide SFU", "setting": "PBMC [1]; Patient 2, peptide 50 μg/ml", "result": "*** (***: >70%)"}, {"measurement": "IFN-γ ELISpot response (raw SFU)", "setting": "PBMC [1]; Patient 3, peptide 50 μg/ml", "result": 7, "unit": "SFU"}]}
{"sequence": "QPYPEQEQPILEEELLLQQQ [oats avenin peptide, CBL51491.1 (22-41) [Q28, Q33, Q34, Q35 to E]; one of two coded A01]", "values": [{"measurement": "IFN-γ ELISpot response (raw SFU)", "setting": "Patient 2 TCC-01", "result": 275, "unit": "SFU"}, {"measurement": "IFN-γ ELISpot response (raw SFU)", "setting": "Patient 6 TCC-01", "result": 16, "unit": "SFU"}]}
{"sequence": "QYQPYPEQEQPILQQ [partially deamidated avenin peptide]", "values": [{"measurement": "patients in which the peptide was the most immunogenic", "setting": "PBMC [2]; oats responders after 3-day oats challenge", "result": 5, "unit": "patients"}]}
{"sequence": "SEQYQPYPEQEQPFLQEQPL [avenin library peptide]", "values": [{"measurement": "IFN-γ ELISpot response (raw SFU)", "setting": "PBMC [1]; Patient 1, peptide 50 μg/ml", "result": 122, "unit": "SFU"}, {"measurement": "significant SFU as a percentage of maximal peptide SFU", "setting": "PBMC [1]; Patient 1, peptide 50 μg/ml", "result": "* (*: 20-40%)"}, {"measurement": "IFN-γ ELISpot response (raw SFU)", "setting": "PBMC [1]; Patient 2, peptide 50 μg/ml", "result": 208, "unit": "SFU"}, {"measurement": "significant SFU as a percentage of maximal peptide SFU", "setting": "PBMC [1]; Patient 2, peptide 50 μg/ml", "result": "*** (***: >70%)"}, {"measurement": "IFN-γ ELISpot response (raw SFU)", "setting": "PBMC [1]; Patient 3, peptide 50 μg/ml", "result": 34, "unit": "SFU"}, {"measurement": "significant SFU as a percentage of maximal peptide SFU", "setting": "PBMC [1]; Patient 3, peptide 50 μg/ml", "result": "* (*: 20-40%)"}]}
{"sequence": "SEQYQPYPEQQEPFVQ [avenin peptide of Genbank Q09097.1, wild-type]", "values": [{"measurement": "IFN-γ ELISpot response (raw SFU)", "setting": "PBMC [2]; patient P1, peptide 1 μg/ml, after 3-day oats challenge", "result": 3, "unit": "SFU"}, {"measurement": "IFN-γ ELISpot response (raw SFU)", "setting": "PBMC [2]; patient P1, peptide 10 μg/ml, after 3-day oats challenge", "result": 5, "unit": "SFU"}, {"measurement": "IFN-γ ELISpot response (raw SFU)", "setting": "PBMC [2]; patient P1, peptide 100 μg/ml, after 3-day oats challenge", "result": 3, "unit": "SFU"}, {"measurement": "IFN-γ ELISpot response (raw SFU)", "setting": "PBMC [2]; patient P2, peptide 1 μg/ml, after 3-day oats challenge", "result": 3, "unit": "SFU"}, {"measurement": "IFN-γ ELISpot response (raw SFU)", "setting": "PBMC [2]; patient P2, peptide 10 μg/ml, after 3-day oats challenge", "result": 3, "unit": "SFU"}, {"measurement": "IFN-γ ELISpot response (raw SFU)", "setting": "PBMC [2]; [3]", "result": 16, "unit": "SFU"}, {"measurement": "significant SFU as a percentage of maximal peptide SFU", "setting": "PBMC [2]; [3]", "result": "* (*: 20-40%)"}, {"measurement": "IFN-γ ELISpot response (raw SFU)", "setting": "PBMC [2]; patient P3, peptide 1 μg/ml, after 3-day oats challenge", "result": 8, "unit": "SFU"}, {"measurement": "IFN-γ ELISpot response (raw SFU)", "setting": "PBMC [2]; patient P3, peptide 10 μg/ml, after 3-day oats challenge", "result": 9, "unit": "SFU"}, {"measurement": "IFN-γ ELISpot response (raw SFU)", "setting": "PBMC [2]; patient P3, peptide 100 μg/ml, after 3-day oats challenge", "result": 4, "unit": "SFU"}, {"measurement": "IFN-γ ELISpot response (raw SFU)", "setting": "PBMC [2]; patient P11, peptide 1 μg/ml, after 3-day oats challenge", "result": 0, "unit": "SFU"}, {"measurement": "IFN-γ ELISpot response (raw SFU)", "setting": "PBMC [2]; patient P11, peptide 10 μg/ml, after 3-day oats challenge", "result": 0, "unit": "SFU"}, {"measurement": "IFN-γ ELISpot response (raw SFU)", "setting": "PBMC [2]; patient P11, peptide 100 μg/ml, after 3-day oats challenge", "result": 0, "unit": "SFU"}, {"measurement": "IFN-γ ELISpot response (raw SFU)", "setting": "PBMC [2]; patient P12, peptide 1 μg/ml, after 3-day oats challenge", "result": 1, "unit": "SFU"}, {"measurement": "IFN-γ ELISpot response (raw SFU)", "setting": "PBMC [2]; patient P12, peptide 10 μg/ml, after 3-day oats challenge", "result": 3, "unit": "SFU"}, {"measurement": "IFN-γ ELISpot response (raw SFU)", "setting": "PBMC [2]; patient P12, peptide 100 μg/ml, after 3-day oats challenge", "result": 0, "unit": "SFU"}, {"measurement": "IFN-γ ELISpot response (raw SFU)", "setting": "PBMC [2]; patient P13, peptide 50 μg/ml, after 3-day oats challenge", "result": 9, "unit": "SFU"}]}
